Key:
NFκB [1] = test: NFκB-dependent transcription, NFκB luciferase reporter in CCRF-CEM cells activated with PI; format: cell-based
Source text: (§1) Reporter plasmids were transfected into CCRF-CEM cells using nucleofection (Nucleofector; AMAXA, Germany). Reporter plasmids expressing firefly luciferase (Luc) were purchased from Stratagene. pNFAT-Luc contains four NFAT binding sites; pGRE-Luc contains four GRE sites, and pAP1-Luc contains seven AP1 binding sites. The NFκB luciferase reporter, p(IL6κB)3-50hu.IL6-luc+, contains three NFκB sites and was a generous gift of Dr. De Bosscher (University of Ghent, Belgium). 10^7 cells suspended in 100 μL Amaxa ‘R’ Cell-line solution were transferred to a cuvette. One μL (1 μg/μL) of solution containing reporter plasmid (firefly luciferase) and control plasmid (pRL-TK-Renilla) (Renilla luciferase) (Promega) at a ratio of (10:1) were added to the cell suspension. […] After transfection the cells were suspended in 200 μL medium, allowed to recover for an hour, equal volume of medium containing 2× drugs were added and incubated at 37° C. for 30 min. Then the cells were stimulated with PI for another five hours. The luciferase activity of each of plasmid and control Renilla-plasmid were measured as per the procedure in Promega Luciferase assay kit.
NFκB-dependent transcription was measured by transient transfection of an NFκB reporter plasmid into CCRF-CEM cells and subsequent activation with PI.

IκB = IκB degradation western blot, PI-activated primary T cells; format: cell-based, human; conditions: PI 30 min
Experimental: (§2) Purified primary human T-cells (10^7 T-cells at 1×10^6 cells/ml) were pretreated with various drugs for 30 min at 37° C. and then stimulated for 30 minutes with PMA and ionomycin. Cells were then pelleted and extracted with 2× protein load dye (Invitrogen, NP0008). Total cell lysates were boiled and centrifuged before loading. 10-15 μl of lysate (approximately 250,000 cells) per lane was run on a 10-12% Tris-Bis gel, or a 3-8% Tris-Acetate gel (precast from Invitrogen). Proteins were immunoblotted onto immobilon PVDF membrane (Millipore) for 30 min using an Owl Semi-Dry electroblotting system. Membranes were blocked with 4% milk for two hours and then incubated with appropriate primary antibodies, washed three times and then probed with secondary antibodies. Chemi-glow™ (Alpha Innotech) chemilluminescent detection solutions were added and image visualized and captured using an Alpha Imager 8900 (Alpha Innotech). NFAT1 was visualized using an antibody obtained from BD Transduction Laboratory (#610703). IκB-alpha was visualized using an antibody from Santa Cruz Biotechnology (#sc371). Mitogen activated protein kinases (MAPK) were visualized using the following antibodies obtained from Cell Signaling: ERK p44/p42 (phospho, #9101; total, #9102); p38 (phospho, #9211; total, #9212); and JNK/SAPK (phospho, #9251; total, #9252).
Primary T cells were activated in vitro with PI (30 min) and extracted for western blot analysis.

p38 = p38 phosphorylation western blot, activated primary T cells; format: cell-based, human; conditions: primary T cells activated 30 minutes
Experimental: as §2
(§3) Purified primary T cells were activated for 30 minutes and extracted for western blot analysis. Activation of each MAPK was tracked using phosphospecific antibodies to a regulatory site on each type of MAPK, normalized by the measurement of total amounts of each MAPK species (FIGS. 4A-4C).

ERK1/2 = ERK1/2 phosphorylation western blot, activated primary T cells; format: cell-based, human; conditions: highest dose tested: cyclosporine 1 μM, prednisolone 3 μM, amoxapine 30 μM, paroxetine 30 μM
Experimental: as §2, §3

NFAT [2] = test: NFAT-dependent transcription, NFAT luciferase reporter in CCRF-CEM cells activated with PI; format: cell-based
Source text: as §1

AP1 = test: AP1-dependent transcription, AP1 luciferase reporter in CCRF-CEM cells activated with PI; format: cell-based
Source text: as §1

NFAT [3] = test: NFAT nuclear translocation by immunofluorescence in PI-activated CCRF-CEM cells; format: cell-based
Source text: NFAT1 was visualized using an antibody obtained from BD Transduction Laboratory (#610703).

NFκB [4] = conditions: activated CCRF-CEM cells, p65
NFAT [5] = test: NFAT dephosphorylation band shift on western blot, PMA/ionomycin-activated primary T cells; format: cell-based, human; conditions: up to 3 μM
Experimental: as §2, with “Mitogen activated protein kinases (MAPK) were visualized using the following antibodies obtained from Cell Signaling: ERK p44/p42 (phospho, #9101; total, #9102); p38 (phospho, #9211; total, #9212); and JNK/SAPK (phospho, #9251; total, #9252).” left out
T cells were isolated from the buffy coat of male donors between the ages of 35 to 50 years. These T cells were activated in vitro with PMA/ionomycin (PI) for 30 minutes and the phosphorylation of NFAT analyzed by mobility shift on a western blot. […]

JNK = JNK activation (phosphorylation) western blot, activated primary T cells; format: cell-based, human; conditions: primary T cells activated 30 minutes
Experimental: as §2, with “#9252). […]” for “#9252).”

## O=C(/C=C/c1ccc(O)c(O)c1)OCCc1ccccc1 [CAPE, caffeic acid phenethyl ester]
NFκB [1]; CCRF-CEM cells, NFκB reporter, PI
  inhibition of NFκB-dependent transcription: inhibited

## Clc1ccc2c(c1)C(N1CCNCC1)=Nc1ccccc1O2 [amoxapine]
IκB
  concentration at which IκB stabilization effects begin: 25 µM
p38
  effect in the p38 assay: no effect
ERK1/2
  prevention of phosphorylation of ERK1/2: not effective

## Fc1ccc([C@@H]2CCNC[C@H]2COc2ccc3c(c2)OCO3)cc1 [paroxetine]
NFAT [2]; Homo sapiens, CCRF-CEM cells, NFAT reporter, read-out: IC50, inhibition of PI-stimulated NFAT transcription
  IC50: 9 µM
AP1; CCRF-CEM cells, AP1 reporter, PI
  IC50: 20 to 30 µM
IκB
  concentration at which IκB stabilization effects begin: 15 µM
p38
  concentration above which some phospho-p38 inhibition is seen: above 10 μM
NFAT [3]; Homo sapiens, read-out: IC50, inhibition of NFAT translocation
  IC50: 30 µM
ERK1/2
  prevention of phosphorylation of ERK1/2: not effective

## C[C@]12C=CC(=O)C=C1CC[C@@H]1[C@@H]2[C@@H](O)C[C@@]2(C)[C@H]1CC[C@]2(O)C(=O)CO [prednisolone]
NFAT [2]; even at high doses
  inhibition of PI-stimulated NFAT transcription: no strong inhibition
NFκB [4]
  effect on NFκB translocation: no effect
AP1; at 300 nM
  inhibition of AP1-dependent transcription: 30%
NFAT [5]
  effect on NFAT dephosphorylation: no effect
IκB
  effect on IκB degradation: no effect
p38
  effect in the p38 assay: no effect
NFAT [3]
  activity in NFAT translocation assay: not active
ERK1/2
  prevention of phosphorylation of ERK1/2: not effective
JNK
  effect on JNK: no effect
NFκB [1]; at 1 μM
  inhibition of NFκB-dependent transcription: 30%

Reference: patent US20050271661A1, “Methods and reagents for the treatment of immunoinflammatory disorders” (priority 2004, published 2005)
